We go through three molecules from patent publication US20260216101A1, “Selective Serotonin Receptor Modulators and Methods of Making and Using the Same” (Park City Bio, LLC, priority 2024, published 2026).

Molecules are shown by their SMILES.

One experiment deals with T1, 5-HT2A receptor (Homo sapiens, UniProt P28223).
T1 construct: expressed in transfected cells; host or cells: HEK293T
Put plainly: 5-HT2 receptor-mediated Gq activation via Gq/γ1 dissociation BRET (5-HT2A). Particulars: predicted based on the level of 5-HT2A agonist efficacy. It is filed as cell-based. The text has this:
(§1) To measure 5-HT2 receptor-mediated Gq activation via Gq/y1 dissociation as measured by Bioluminescence Resonance Energy Transfer (BRET) (McCorvy J D, Wacker D, Wang S, Agegnehu B, Liu J, Lansu K, Tribo A R, Olsen R H J, Che T, Jin J, Roth B L. Structural determinants of 5-HT2B receptor activation and biased agonism. Nat Struct Mol Biol. 2018; 25(9): 787-96), HEK293T cells were sub-cultured in Dulbecco's Modified Eagle Medium (DMEM) supplemented with 10% dialyzed fetal bovine serum (FBS) and were co-transfected in a 1:1:1:1 ratio with Rluc8-fused human Gaq (Gaq-Rluc8), a GFP2-fused to the C-terminus of human Gy1(Gy1-GFP2), human G131, and 5-HT2 receptor using TransiT-2020. After at least 18-24 hours, transfected cells were plated in poly-lysine coated 96-well white clear bottom cell culture plates in DMEM containing 1% dialyzed FBS at a density of 25,000-40,000 cells in 200 μL per well and incubated overnight. The following day, medium was decanted, and cells were washed with 60 μL of drug buffer (1×HBSS, 20 mM HEPES, pH 7.4), then 60 μL of drug buffer was added per well. Cells were pre-incubated at in a humidified atmosphere at 37° C. before receiving drug stimulation. […] Substrate addition occurred 15 minutes before reading and utilized 10 μL of the Rluc substrate coelenterazine 400a for Gq dissociation BRET^2 (Prolume/Nanolight, 5 μM final concentration). Plates were read for luminescence at 400 nm and fluorescent GFP2 emission at 510 nm at 1 second per well using a Mithras LB940 multimode microplate reader (e.g. one provided by Berthold). The BRET ratios of fluorescence/luminescence were calculated per well and were plotted as a function of drug concentration using Graphpad Prism 8 (Graphpad Software Inc., San Diego, CA). Data were normalized to % 5-HT stimulation and analyzed using nonlinear regression “log(agonist) vs. response” to yield Emax and EC50 parameter estimates. […]

A further experiment concerns the target T2, 5-HT2C receptor (Homo sapiens, UniProt P28335).
T2 construct: expressed in transfected cells; host or cells: HEK293T
T2 sequence (P28335 33-458): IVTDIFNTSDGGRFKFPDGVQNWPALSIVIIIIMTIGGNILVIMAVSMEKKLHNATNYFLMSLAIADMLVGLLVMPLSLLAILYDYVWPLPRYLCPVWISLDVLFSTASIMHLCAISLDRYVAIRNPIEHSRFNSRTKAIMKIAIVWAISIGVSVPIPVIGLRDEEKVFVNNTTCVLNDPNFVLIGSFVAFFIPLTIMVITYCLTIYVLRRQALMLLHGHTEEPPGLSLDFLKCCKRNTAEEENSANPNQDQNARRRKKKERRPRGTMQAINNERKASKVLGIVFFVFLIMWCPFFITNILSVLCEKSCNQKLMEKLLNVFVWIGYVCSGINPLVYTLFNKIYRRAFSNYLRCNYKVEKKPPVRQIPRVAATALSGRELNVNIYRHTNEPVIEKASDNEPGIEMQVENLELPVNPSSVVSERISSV
Put plainly: 5-HT2 receptor-mediated Gq activation via Gq/γ1 dissociation BRET (5-HT2C). Type of experiment: cell-based. The conditions noted are these: primary 5-HT2C signaling via Gq-coupled mechanism compared to β-arrestin.
Description: as §1

T1 sequence (P28223 whole entry): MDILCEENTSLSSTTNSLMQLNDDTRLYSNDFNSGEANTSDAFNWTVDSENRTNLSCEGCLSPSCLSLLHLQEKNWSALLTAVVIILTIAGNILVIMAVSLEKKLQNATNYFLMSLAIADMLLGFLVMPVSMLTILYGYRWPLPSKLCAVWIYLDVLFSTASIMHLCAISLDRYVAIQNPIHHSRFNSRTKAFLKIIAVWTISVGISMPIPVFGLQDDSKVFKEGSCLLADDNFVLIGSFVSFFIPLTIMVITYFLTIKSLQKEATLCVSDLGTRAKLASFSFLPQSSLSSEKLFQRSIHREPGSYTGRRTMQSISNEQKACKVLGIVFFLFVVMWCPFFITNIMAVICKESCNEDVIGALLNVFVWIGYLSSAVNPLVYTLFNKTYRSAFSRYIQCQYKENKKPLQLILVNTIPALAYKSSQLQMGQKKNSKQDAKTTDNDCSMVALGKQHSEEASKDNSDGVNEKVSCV

Regarding `CNC[C@H]1C[C@@H]1c1cc(F)ccc1OC`, the “Hall or N-Hall? (hallucinogenic or non-hallucinogenic plastogenic effect)” value at 5-HT2A receptor is listed as “N-Hall”. The “5-HT2C Gq signaling bias?” value on 5-HT2C receptor is given as “Yes”.

With `CNCC1CC1c1cc(F)ccc1SC` (stereo not drawn), the “Hall or N-Hall? (hallucinogenic or non-hallucinogenic plastogenic effect)” value at 5-HT2A receptor is recorded as “N-Hall”. Further, the “5-HT2C Gq signaling bias?” value on 5-HT2C receptor is listed as “Yes”.

Regarding `CSc1ccc(F)cc1C1CC1CN(C)C` (stereo not drawn), the “Hall or N-Hall? (hallucinogenic or non-hallucinogenic plastogenic effect)” value on 5-HT2A receptor is on record as “N-Hall”. Also, on 5-HT2C receptor, the “5-HT2C Gq signaling bias?” value is on record as “Yes”.
